The assay deals with T1, human DP2 (Homo sapiens, UniProt Q9Y5Y4).
T1 construct: expressed in transfected cells; membranes prepared
T1 sequence (Q9Y5Y4 1-395): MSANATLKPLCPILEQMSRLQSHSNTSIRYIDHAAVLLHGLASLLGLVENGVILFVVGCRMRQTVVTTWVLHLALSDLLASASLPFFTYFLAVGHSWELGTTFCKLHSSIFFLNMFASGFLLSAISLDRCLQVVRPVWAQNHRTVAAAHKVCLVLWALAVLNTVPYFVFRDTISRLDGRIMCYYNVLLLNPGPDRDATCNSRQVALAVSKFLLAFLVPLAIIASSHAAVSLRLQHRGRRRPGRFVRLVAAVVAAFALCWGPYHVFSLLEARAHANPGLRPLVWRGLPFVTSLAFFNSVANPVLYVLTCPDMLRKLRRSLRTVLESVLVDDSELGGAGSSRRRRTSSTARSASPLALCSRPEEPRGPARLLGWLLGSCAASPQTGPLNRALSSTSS
The experiment in a line: DP-2 binding inhibition assay (3H-PGD2, membranes of DP2-expressing K562 cells). As for the experimental part: The coding sequence of human DP2 was introduced into the human Leukemic cell line K562 by electroporation and stable clones expressing DP2 were obtained by limiting dilution followed by cell surface staining with a rat monoclonal antibody specific for human DP2. Membranes were prepared from one of these DP2 expressing clones and used to determine the ability of the compounds of the present invention to inhibit binding of prostaglandin D2 (PGD2) to its receptor DP2 in the presence of one or more of the following serum protein concentrations, 0.1% BSA, 1% HSA or 4% HSA, by the following procedure. […] After incubation for 60 minutes at room temperature, the assay was transferred to a filtration plate (#MAFB; Millipore Corporation, Bedford, Mass.), and washed three times with binding buffer. Radioactivity was measured by a scintillation counter (TopCount; PerkinElmer Life Sciences, Boston, Mass.). Nonspecific binding was determined by incubations in the presence of 1 μM unlabeled PGD2 or 5 μM of a known DP2 antagonist. IC50 values for inhibition of binding were determined for each compound tested from the inflexion point of a standard 4-parameter logistical curve fitted to the values obtained.

The mark [1] stands for this setting: 4% HSA, read-out: EC50 (nM) 4% HSA.
Setting [2] is: 0.1% BSA, read-out: EC50 (nM) 0.1% BSA.
The mark [3] stands for this setting: 1% HSA, read-out: EC50 (nM) 1% HSA.

Molecules are shown by their SMILES. Where two headings read alike, the source gives them in different places.

As for `O=C(Nc1nc(-c2ccc(F)c(F)c2)cs1)c1ccc(Oc2cc3c(cc2Cl)C(C(=O)O)CCO3)cc1` (stereo not drawn) [Example 154, 6-chloro-7-(4-(4-(3,4-difluorophenyl)thiazol-2-ylcarbamoyl)phenoxy)chroman-4-carboxylic acid], the EC50 under setting [1] was determined as 59 nM.

For `COc1ccc(-c2ccc(NC(=O)c3ccc(Oc4cc5c(cc4Cl)C(C(=O)O)CCO5)cc3)nn2)cn1` (stereo not drawn) [Example 68, Sodium 6-chloro-7-(4-(6-(6-methoxypyridin-3-yl)pyridazin-3-ylcarbamoyl)phenoxy)chroman-4-carboxylate], the concentration for a half-maximal effect (EC50) under setting [1] was 869 nM.

With `N#Cc1cc2c(cc1Oc1ccc(C(=O)Nc3cccc(-c4ccc(Cl)cc4)n3)cc1)OCCC2C(=O)O` (stereo not drawn) [Example 51, 7-(4-(6-(4-Chlorophenyl)pyridin-2-ylcarbamoyl)phenoxy)-6-cyanochroman-4-carboxylic acid], under setting [1], the 50% effective concentration (EC50) was found to be 51.3 nM.

In the case of `O=C(Nc1ccnc(-c2ccc(Cl)cc2)n1)c1ccc(Oc2c(Cl)cc3c(c2Cl)OCCC3C(=O)O)cc1` (stereo not drawn) [Example 137, 6,8-Dichloro-7-(4-(2-(4-chlorophenyl)pyrimidin-4-ylcarbamoyl)phenoxy)chroman-4-carboxylic acid], the half-maximal effective concentration (EC50) under setting [1] came out at 80.9 nM.

Take `O=C(Nc1ccc(-c2ccccc2Cl)cn1)c1ccc(Oc2cc3c(cc2Cl)C(C(=O)O)CCO3)cc1` (stereo not drawn) [Example 117, 6-Chloro-7-(4-(5-(2-chlorophenyl)pyridin-2-ylcarbamoyl)phenoxy)chroman-4-carboxylic acid]: under setting [1], the concentration giving a half-maximal response (EC50) turned out to be 264 nM.

As for `O=C(Nc1ccc(-c2ccc(C(F)(F)F)cc2F)nn1)c1ccc(Oc2cc3c(cc2Cl)C(C(=O)O)CCO3)cc1` (stereo not drawn) [Example 70, Sodium 6-chloro-7-(4-(6-(2-fluoro-4-(trifluoromethyl)phenyl)pyridazin-3-ylcarbamoyl)phenoxy)chroman-4-carboxylate], under setting [1], the EC50 was 437 nM.

With `O=C(Nc1ccc(-c2cccc(C(F)(F)F)c2)nn1)c1ccc(Oc2cc3c(cc2Cl)C(C(=O)O)CCO3)cc1` (stereo not drawn) [Example 99, Sodium 6-chloro-7-(4-(6-(3-(trifluoromethyl)phenyl)pyridazin-3-ylcarbamoyl)phenoxy)chroman-4-carboxylate], the EC50 under setting [1] is 235 nM.

`N#Cc1cc2c(cc1Oc1ccc(C(=O)Nc3ccc4[nH]ncc4c3)cc1)OCCC2C(=O)O` (stereo not drawn) [Example 192, 7-(4-(1H-indazol-5-ylcarbamoyl)phenoxy)-6-cyanochroman-4-carboxylic acid]: the EC50 under setting [2] was found to be 492 nM.

On to `Cn1nc(C(C)(C)C)cc1NC(=O)c1ccc(Oc2cc3c(cc2Cl)C(C(=O)O)CCO3)cc1` (stereo not drawn) [Example 178, 7-(4-(3-tert-butyl-1-methyl-1H-pyrazol-5-ylcarbamoyl)phenoxy)-6-chlorochroman-4-carboxylic acid], for which the EC50 under setting [1] was 951 nM.

Consider `O=C(NC1CCN(c2cccc(C(F)(F)F)n2)CC1)c1ccc(Oc2cc3c(cc2Cl)C(C(=O)O)CCO3)cc1` (stereo not drawn) [Example 211], for which, under setting [1], the 50% effective concentration (EC50) is 421 nM.

Take `O=C(Nc1ccc(-c2ccc(F)cc2F)nn1)c1ccc(Oc2cc3c(cc2Cl)C(C(=O)O)CCO3)cc1` (stereo not drawn) [Example 71, Sodium 6-chloro-7-(4-(6-(2,4-difluorophenyl)pyridazin-3-ylcarbamoyl)phenoxy)chroman-4-carboxylate]: under setting [1], the concentration for a half-maximal effect (EC50) turned out to be 1510 nM.

As to `O=C(Nc1cccc(-c2ccc(Cl)cc2F)n1)c1ccc(Oc2cc3c(cc2Cl)C(C(=O)O)CCO3)cc1` (stereo not drawn) [Example 87, 6-chloro-7-(4-(6-(4-chloro-2-fluorophenyl)pyridin-2-ylcarbamoyl)phenoxy)chroman-4-carboxylic acid], the half-maximal effective concentration (EC50) under setting [1] stood at 41.4 nM.

For `Cc1ccc(-c2cccc(NC(=O)c3ccc(Oc4cc5c(cc4Cl)C(C(=O)O)CCO5)cc3)n2)cc1F` (stereo not drawn) [Example 88, 6-Chloro-7-(4-(6-(3-fluoro-4-methylphenyl)pyridin-2-ylcarbamoyl)phenoxy)chroman-4-carboxylic acid], the EC50 under setting [1] stood at 55.5 nM.

Regarding `O=C(Nc1cc(-c2ccc(Cl)cc2)ccn1)c1ccc(Oc2cc3c(cc2Cl)C(C(=O)O)CCO3)cc1` (stereo not drawn) [Example 120, 6-Chloro-7-(4-(4-(4-chlorophenyl)pyridin-2-ylcarbamoyl)phenoxy)chroman-4-carboxylic acid], under setting [1], the EC50 was found to be 2730 nM.

For the compound `O=C(Nc1ccc(-c2ccc(Cl)cc2)nn1)c1ccc(Oc2cc3c(cc2Cl)C(C(=O)O)CCO3)cc1` (stereo not drawn) [Example 209, 6-chloro-7-(4-(6-(4-chlorophenyl)pyridazin-3-ylcarbamoyl)phenoxy) chroman-4-carboxylic acid], under setting [1], the half-maximal effective concentration (EC50) was 207 nM.

Take `CN(C)c1nc(C2CC2)ccc1CCNC(=O)c1ccc(Oc2cc3c(cc2Cl)C(C(=O)O)CCO3)cc1` (stereo not drawn) [Example 187, 6-Chloro-7-(4-(2-(6-cyclopropyl-2-(dimethylamino)pyridin-3-yl)ethylcarbamoyl)phenoxy)chroman-4-carboxylic acid]: the concentration for a half-maximal effect (EC50) under setting [1] amounted to 45.2 nM.

As for `O=C(Nc1ccc(-c2ccc(C(F)(F)F)cc2)cn1)c1ccc(Oc2cc3c(cc2Cl)C(C(=O)O)CCO3)cc1` (stereo not drawn) [Example 118, 6-Chloro-7-(4-(5-(4-(trifluoromethyl)phenyl)pyridin-2-ylcarbamoyl)phenoxy)chroman-4-carboxylic acid], the EC50 under setting [1] is 100 nM.

Consider `N#Cc1cc2c(cc1Oc1ccc(C(=O)Nc3ccc4cn[nH]c4c3)cc1)OCCC2C(=O)O` (stereo not drawn) [Example 193, 7-(4-(1H-indazol-6-ylcarbamoyl)phenoxy)-6-cyanochroman-4-carboxylic acid], for which the concentration giving a half-maximal response (EC50) under setting [2] is 36.7 nM.

Regarding `O=C(Nc1cccc(-c2ccc(Cl)c(F)c2)n1)c1ccc(Oc2cc3c(cc2Cl)C(C(=O)O)CCO3)cc1` (stereo not drawn) [Example 86, 6-Chloro-7-(4-(6-(4-chloro-3-fluorophenyl)pyridin-2-ylcarbamoyl)phenoxy)chroman-4-carboxylic acid], under setting [1], the concentration giving a half-maximal response (EC50) was determined as 49.5 nM.

Regarding `O=C(Nc1cccc(-c2ccccc2Cl)n1)c1ccc(Oc2cc3c(cc2Cl)C(C(=O)O)CCO3)cc1` (stereo not drawn) [Example 56, 6-Chloro-7-(4-(6-(2-chlorophenyl)pyridin-2-ylcarbamoyl)phenoxy)chroman-4-carboxylic acid], under setting [1], the EC50 turned out to be 582 nM.

As to `O=C(Nc1ccc2cc(C(F)(F)F)ccc2n1)c1ccc(Oc2cc3c(cc2Cl)C(C(=O)O)CCO3)cc1` (stereo not drawn) [Example 16, 6-Chloro-7-(4-(6-(trifluoromethyl)quinolin-2-ylcarbamoyl)phenoxy)chroman-4-carboxylic acid], the EC50 under setting [1] is 142 nM.

For the compound `O=C(Nc1ccc(-c2cccc(C(F)(F)F)c2)nc1)c1ccc(Oc2cc3c(cc2Cl)C(C(=O)O)CCO3)cc1` (stereo not drawn) [Example 75, 6-Chloro-7-(4-(6-(3-(trifluoromethyl)phenyl)pyridin-3-ylcarbamoyl)phenoxy)chroman-4-carboxylic acid], the EC50 under setting [1] was 149 nM.

As to `O=C(Nc1cc(C(F)(F)F)ccn1)c1ccc(Oc2cc3c(cc2Cl)C(C(=O)O)CCO3)cc1` (stereo not drawn) [Example 31, 6-Chloro-7-(4-(4-(trifluoromethyl)pyridin-2-ylcarbamoyl)phenoxy)chroman-4-carboxylic acid], under setting [1], the concentration for a half-maximal effect (EC50) was 1730 nM.

With `O=C(Nc1cnn(-c2cccc(Cl)c2)c1)c1ccc(Oc2cc3c(cc2Cl)C(C(=O)O)CCO3)cc1` (stereo not drawn) [Example 164, Sodium 6-chloro-7-(4-(1-(3-chlorophenyl)-1H-pyrazol-4-ylcarbamoyl)phenoxy)chroman-4-carboxylate], the concentration giving a half-maximal response (EC50) under setting [1] was 143 nM.

For `CCOc1cccc(NC(=O)c2ccc(Oc3cc4c(cc3Cl)C(C(=O)O)CCO4)cc2)n1` (stereo not drawn) [Example 78, 6-Chloro-7-(4-(6-ethoxypyridin-2-ylcarbamoyl)phenoxy)chroman-4-carboxylic acid], the concentration giving a half-maximal response (EC50) under setting [1] is 740 nM.

In the case of `O=C(Nc1ccc2cc(Cl)ccc2n1)c1ccc(Oc2cc3c(cc2Cl)C(C(=O)O)CCO3)cc1` (stereo not drawn) [Example 30, 6-Chloro-7-(4-(6-chloroquinolin-2-ylcarbamoyl)phenoxy)chroman-4-carboxylic acid], the EC50 amounted to 13 nM under setting [2], 120 nM under setting [3] and 134 nM under setting [1].

Take `CN(C)c1ncccc1CCNC(=O)c1ccc(Oc2cc3c(cc2Cl)C(C(=O)O)CCO3)cc1` (stereo not drawn) [Example 225, 6-chloro-7-(4-(2-(2-(dimethylamino)pyridin-3-yl)ethylcarbamoyl)phenoxy) chroman-4-carboxylic acid]: under setting [1], the concentration for a half-maximal effect (EC50) was determined as 664 nM.

For the compound `O=C(Nc1cnc2cc(Cl)ccc2n1)c1ccc(Oc2cc3c(cc2Cl)C(C(=O)O)CCO3)cc1` (stereo not drawn) [Example 15, 6-Chloro-7-(4-(6-chloroquinoxalin-2-ylcarbamoyl)phenoxy)chroman-4-carboxylic acid], the 50% effective concentration (EC50) runs as follows: under setting [2], 17.9 nM; under setting [3], 207 nM; under setting [1], 409 nM.

For `N#Cc1cc2c(cc1Oc1ccc(C(=O)Nc3cnc4ccccc4c3)cc1)OCCC2C(=O)O` (stereo not drawn) [Example 10, 6-Cyano-7-(4-(quinolin-3-ylcarbamoyl)phenoxy)chroman-4-carboxylic acid], the EC50 under setting [2] worked out at 37.8 nM.

These data come from patent publication US8785445B2 (Array BioPharma Inc., priority 2008, dated 2014).
